Measured values reported in PMC8484140 (Targeted Oncology, 2021).

Columns and labels:
Safety evaluation = type: in vivo, human
[1] = test system: HR+/HER2− advanced breast cancer; experiment: Efficacy by RECIST 1.1, Stage I/II patients; type: in vivo, human; settings: for Clinical response: CR (number of patients) / Clinical response: PD (number of patients) / Clinical response: PR (number of patients) / Clinical response: SD (number of patients): with exemestane in Stage II
[2] = Stage II, 3 mg/week + exemestane 25 mg/day, n=2
[3] = Stage II, 5 mg/week + exemestane 25 mg/day, n=14

Nc1ccccc1NC(=O)c1ccc(CNC(=O)OCc2cccnc2)cc1 [Entinostat]
Tolerability of entinostat in combination with exemestane (Safety evaluation; Chinese patients): well tolerated | AKP elevation, entinostat-related AE of all grades (Safety evaluation; [2]): 0 No. (%) | ALT elevation, entinostat-related AE of all grades (Safety evaluation; [2]): 0 No. (%) | AST elevation, entinostat-related AE of all grades (Safety evaluation; [2]): 0 No. (%) | Abdominal pain, entinostat-related AE of all grades (Safety evaluation; [2]): 0 No. (%) | Anemia, entinostat-related AE of all grades (Safety evaluation; [2]): 0 No. (%) | Back pain, entinostat-related AE of all grades (Safety evaluation; [2]): 0 No. (%) | Chest pain, entinostat-related AE of all grades (Safety evaluation; [2]): 0 No. (%) | Creatine increase, entinostat-related AE of all grades (Safety evaluation; [2]): 0 No. (%) | Creatinine phosphokinase increase, entinostat-related AE of all grades (Safety evaluation; [2]): 0 No. (%) | Debilitation, entinostat-related AE of all grades (Safety evaluation; [2]): 0 No. (%) | Diarrhea, entinostat-related AE of all grades (Safety evaluation; [2]): 0 No. (%) | Fatigue, entinostat-related AE of all grades (Safety evaluation; [2]): 0 No. (%) | Flatulence, entinostat-related AE of all grades (Safety evaluation; [2]): 0 No. (%) | Headache, entinostat-related AE of all grades (Safety evaluation; [2]): 0 No. (%) | Hypoalbuminemia, entinostat-related AE of all grades (Safety evaluation; [2]): 0 No. (%) | Hypocalcemia, entinostat-related AE of all grades (Safety evaluation; [2]): 0 No. (%) | Hypokalemia, entinostat-related AE of all grades (Safety evaluation; [2]): 0 No. (%) | Hypoproteinemia, entinostat-related AE of all grades (Safety evaluation; [2]): 0 No. (%) | LDH increase, entinostat-related AE of all grades (Safety evaluation; [2]): 0 No. (%) | Leukopenia, entinostat-related AE of all grades (Safety evaluation; [2]): 0 No. (%) | Limb pain, entinostat-related AE of all grades (Safety evaluation; [2]): 0 No. (%) | Nausea, entinostat-related AE of all grades (Safety evaluation; [2]): 0 No. (%) | Neutropenia, entinostat-related AE of all grades (Safety evaluation; [2]): 2 (100) No. (%) | Palpitation, entinostat-related AE of all grades (Safety evaluation; [2]): 0 No. (%) | Serum Ca^2+ decrease, entinostat-related AE of all grades (Safety evaluation; [2]): 0 No. (%) | Serum Na+ decrease, entinostat-related AE of all grades (Safety evaluation; [2]): 0 No. (%) | Serum albumin decrease, entinostat-related AE of all grades (Safety evaluation; [2]): 0 No. (%) | Serum phosphate decrease, entinostat-related AE of all grades (Safety evaluation; [2]): 0 No. (%) | Serum urea increase, entinostat-related AE of all grades (Safety evaluation; [2]): 0 No. (%) | Thrombocytopenia, entinostat-related AE of all grades (Safety evaluation; [2]): 0 No. (%) | Γ-GT elevation, entinostat-related AE of all grades (Safety evaluation; [2]): 0 No. (%) | α-HBDH elevation, entinostat-related AE of all grades (Safety evaluation; [2]): 0 No. (%) | Grade 3 AE (Safety evaluation; Stage II, 3 mg/week group + exemestane): no grade 3 AE occurred | CTCAE grade 3 arrhythmia requiring medical care (Safety evaluation; Stage II, 5 mg entinostat group, 1/14): 7.1% | AKP elevation, entinostat-related AE of all grades (Safety evaluation; [3]): 4 (28.6) No. (%) | ALT elevation, entinostat-related AE of all grades (Safety evaluation; [3]): 0 No. (%) | AST elevation, entinostat-related AE of all grades (Safety evaluation; [3]): 2 (14.3) No. (%) | Abdominal pain, entinostat-related AE of all grades (Safety evaluation; [3]): 0 No. (%) | Anemia, entinostat-related AE of all grades (Safety evaluation; [3]): 5 (35.7) No. (%) | Back pain, entinostat-related AE of all grades (Safety evaluation; [3]): 0 No. (%) | Chest pain, entinostat-related AE of all grades (Safety evaluation; [3]): 0 No. (%) | Creatine increase, entinostat-related AE of all grades (Safety evaluation; [3]): 4 (28.6) No. (%) | Creatinine phosphokinase increase, entinostat-related AE of all grades (Safety evaluation; [3]): 6 (42.9) No. (%) | Debilitation, entinostat-related AE of all grades (Safety evaluation; [3]): 0 No. (%) | Diarrhea, entinostat-related AE of all grades (Safety evaluation; [3]): 3 (21.4) No. (%) | Fatigue, entinostat-related AE of all grades (Safety evaluation; [3]): 0 No. (%) | Flatulence, entinostat-related AE of all grades (Safety evaluation; [3]): 0 No. (%) | Headache, entinostat-related AE of all grades (Safety evaluation; [3]): 0 No. (%) | Hypoalbuminemia, entinostat-related AE of all grades (Safety evaluation; [3]): 3 (21.4) No. (%) | Hypocalcemia, entinostat-related AE of all grades (Safety evaluation; [3]): 2 (14.3) No. (%) | Hypokalemia, entinostat-related AE of all grades (Safety evaluation; [3]): 2 (14.3) No. (%) | Hypoproteinemia, entinostat-related AE of all grades (Safety evaluation; [3]): 3 (21.4) No. (%) | LDH increase, entinostat-related AE of all grades (Safety evaluation; [3]): 2 (14.3) No. (%) | Leukopenia, entinostat-related AE of all grades (Safety evaluation; [3]): 10 (71.4) No. (%) | Limb pain, entinostat-related AE of all grades (Safety evaluation; [3]): 2 (14.3) No. (%) | Nausea, entinostat-related AE of all grades (Safety evaluation; [3]): 0 No. (%) | Neutropenia, entinostat-related AE of all grades (Safety evaluation; [3]): 10 (71.4) No. (%) | Palpitation, entinostat-related AE of all grades (Safety evaluation; [3]): 0 No. (%) | Serum Ca^2+ decrease, entinostat-related AE of all grades (Safety evaluation; [3]): 2 (14.3) No. (%) | Serum Na+ decrease, entinostat-related AE of all grades (Safety evaluation; [3]): 2 (14.3) No. (%) | Serum albumin decrease, entinostat-related AE of all grades (Safety evaluation; [3]): 2 (14.3) No. (%) | Serum phosphate decrease, entinostat-related AE of all grades (Safety evaluation; [3]): 7 (50) No. (%) | Serum urea increase, entinostat-related AE of all grades (Safety evaluation; [3]): 2 (14.3) No. (%) | Thrombocytopenia, entinostat-related AE of all grades (Safety evaluation; [3]): 6 (42.9) No. (%) | Γ-GT elevation, entinostat-related AE of all grades (Safety evaluation; [3]): 3 (21.4) No. (%) | α-HBDH elevation, entinostat-related AE of all grades (Safety evaluation; [3]): 2 (14.3) No. (%) | Number of CTCAE grade ≥ 3 AEs (Safety evaluation; Stage II, 5 mg/week group + exemestane): 38 | Clinical response: CR (number of patients) ([1]; 3 mg (n = 2)): 0 | Clinical response: PD (number of patients) ([1]; 3 mg (n = 2)): 1 | Clinical response: PR (number of patients) ([1]; 3 mg (n = 2)): 0 | Clinical response: SD (number of patients) ([1]; 3 mg (n = 2)): 1 | Clinical response: CR (number of patients) ([1]; 5 mg (n = 9)): 0 | Clinical response: PD (number of patients) ([1]; 5 mg (n = 9)): 6 | Clinical response: PR (number of patients) ([1]; 5 mg (n = 9)): 2 | Clinical response: SD (number of patients) ([1]; 5 mg (n = 9)): 1 | PFS ([1]; 5 mg group, from first dose of entinostat, 95% CI: 78–201): 85.5 days | Clinical response: CR (number of patients) ([1]; 7 mg→5 mg (n = 3)): 0 | Clinical response: PD (number of patients) ([1]; 7 mg→5 mg (n = 3)): 2 | Clinical response: PR (number of patients) ([1]; 7 mg→5 mg (n = 3)): 0 | Clinical response: SD (number of patients) ([1]; 7 mg→5 mg (n = 3)): 1 | Overall response rate (ORR, CR+PR) ([1]; 14 evaluated patients, 2/14): 14.3% | Patients achieving CR ([1]; 14 evaluated patients, all cohorts): none | Patients with stable disease ([1]; 14 evaluated patients, all three treatment groups): Three | Patients with PD ([1]; 14 evaluated patients, three groups): Nine | Patients with stable disease (> 12 weeks) ([1]; extended treatment stage, entinostat 3 or 5 mg/week + exemestane 25 mg/day): three
